Values of other authors as cited in patent US20140378500A1, “METHODS FOR PREDICTING TUMOR REPONSE TO TARGETED THERAPIES” (20/20 Gene Systems, Inc., priority 2012, published 2014).

System: advanced renal cell carcinoma (RCC)
Conditions: cited from earlier work

Question: Which results are given for `CO[C@H]1C[C@@H]2CC[C@@H](C)[C@@](O)(O2)C(=O)C(=O)N2CCCC[C@H]2C(=O)O[C@H]([C@H](C)C[C@@H]2CC[C@@H](OC(=O)C(C)(CO)CO)[C@H](OC)C2)CC(=O)[C@H](C)/C=C(\C)[C@@H](O)[C@@H](OC)C(=O)[C@H](C)C[C@H](C)/C=C/C=C/C=C/1C` [TORISEL, Temsirolimus]?
Answer: kidney cancer patients who benefit materially (kidney cancer patients, mTOR inhibitors): less than 10%; response rate (patients diagnosed with advanced RCC): less than 10%
